Measurements as given in US11976083B2, “Inhibitors of peptidylarginine deiminases” (Gilead Sciences, Inc., priority 2020, dated 2024).
pIC50: −log10 of the molar value.

molecular target: T1, human PAD4 (Homo sapiens, UniProt Q9UM07); assay: In vitro PAD4 BAEE biochemical assay; conditions: BAEE substrate 3 mM, 5 nM PAD4, 2 mM calcium chloride; geometric mean of multiple experiments
T1 construct: human PAD4 (NM_012387), A2-P663, was PCR amplified; His-SUMO (N, cleaved yes); made in house; host or cells: E. coli BL21(DE3)
Summary of the method: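 PAD4 5 nM, CaCl2 2 mM, BAEE 3 mM final; 50 mM MOPS pH 7.6, 50 mM NaCl, 0.05% Tween-20, 2 mM DTT. Cpd + enzyme 30 min 25 °C; substrate 2 h 25 °C; EDTA stop; OPA detection 1 h. IC50 4-parameter fit.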

T1 sequence (Q9UM07 2-663): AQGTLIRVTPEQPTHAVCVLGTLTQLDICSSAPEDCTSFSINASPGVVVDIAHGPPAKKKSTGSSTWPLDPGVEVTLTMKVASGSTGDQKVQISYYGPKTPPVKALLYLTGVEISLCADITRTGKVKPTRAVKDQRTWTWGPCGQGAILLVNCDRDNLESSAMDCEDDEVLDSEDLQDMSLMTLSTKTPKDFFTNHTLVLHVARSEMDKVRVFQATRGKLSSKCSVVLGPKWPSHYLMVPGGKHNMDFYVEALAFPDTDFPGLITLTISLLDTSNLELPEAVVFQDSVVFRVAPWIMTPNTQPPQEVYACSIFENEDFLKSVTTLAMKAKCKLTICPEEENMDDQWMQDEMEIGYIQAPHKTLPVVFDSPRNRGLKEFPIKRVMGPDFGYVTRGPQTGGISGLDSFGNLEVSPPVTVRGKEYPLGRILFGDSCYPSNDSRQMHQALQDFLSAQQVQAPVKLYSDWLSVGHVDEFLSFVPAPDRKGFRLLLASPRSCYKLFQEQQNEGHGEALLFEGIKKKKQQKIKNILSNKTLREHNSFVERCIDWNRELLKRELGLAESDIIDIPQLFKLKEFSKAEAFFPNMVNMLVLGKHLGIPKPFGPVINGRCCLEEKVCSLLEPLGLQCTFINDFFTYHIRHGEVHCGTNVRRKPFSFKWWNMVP

Compound | pIC50
COc1cc(C(=O)N2[C@H]3CC[C@@H]2[C@H](N)C3)cc2nc(-c3cc4ccc5nc4n3CCCCC[C@H](OC)CC(=O)N[C@@H]5C)c(C)n12 [Example 332, (7~{S},11~{R})-17-[7-[(1~{R},2~{R},4~{S})-2-amino-7-azabicyclo[2.2.1]heptane-7-carbonyl]-5-methoxy-3-methyl-imidazo[1,2-a]pyridin-2-yl]-7-methoxy-11-methyl-1,10,19-triazatricyclo[10.5.2.0^{15,18}]nonadeca-12(19),13,15(18),16-tetraen-9-one] | 7.70
C[C@H]1NC(=O)c2ccc(Cl)nc2CCCCCn2c(-c3nc4cc(C(=O)N5C[C@H](N)[C@@H]6CC[C@H]5[C@H]6F)cc(F)c4n3C3CC3)cc3ccc1nc32 [Example 669, (2~{R})-17-[5-[(1~{S}, 4~{R},5~{S},8~{S})-4-amino-8-fluoro-2-azabicyclo[3.2.1]octane-2-carbonyl]-1-cyclopropyl-7-fluoro-benzimidazol-2-yl]-8-chloro-2-methyl-3,9,16,22-tetrazatetracyclo[14.5.2.0^ {5,10).0^{19,23}]tricosa-1(22),5(10),6,8,17,19(23),20-heptaen-4-one] | 7.35
COc1cc(C(=O)N2C[C@H](N)[C@@H]3CC[C@H]2C3)cc2nc(-c3cc4ccc5nc4n3CCCCC[C@H]3[C@H](C(=O)N[C@@H]5C)C3(F)F)n(C3CC3)c12 [Example 930, (2~{R},5~{R},7~{S})-14-[5-[(1~{S},4~{R},5~{R})-4-amino-2-azabicyclo[3.2.1]octane-2-carbonyl]-1-cyclopropyl-7-methoxy-benzimidazol-2-yl]-6,6-difluoro-2-methyl-3,13,19-triazatetracyclo[11.5.2.0^ {5,7}.0^{16,20}]icosa-1(19), 14,16(20),17-tetraen-4-one] | 7.66
C[C@H]1NC(=O)c2c(cccc2C(F)F)CCCCCn2c(-c3nc4cc(C(=O)N[C@H]5CNCC[C@@H]5F)c(F)cc4n3C)cc3ccc1nc32 [Example 384, 2-[(2~{R})-6-(difluoromethyl)-2-methyl-4-oxo-3,16,22-triazatetracyclo[14.5.2.0^{5,10}.0^{19,23}]tricosa-1(22),5(10),6,8,17,19(23),20-heptaen-17-yl]-6-fluoro-~{N}-[(3~{S},4~{S})-4-fluoro-3-piperidyl]-1-methyl-benzimidazole-5-carboxamide] | 7.21
COc1cc(C(=O)N2CC[C@@H](OC)[C@@H](N)C2)cc2nc(-c3cc4ccc5nc4n3CCCCCc3nc4ccccc4nc3C(=O)N[C@@H]5C)n(C)c12 [Example 414, (2~{R})-21-[5-[(3~{S},4~{R})-3-amino-4-methoxy-piperidine-1-carbonyl]-7-methoxy-1-methyl-benzimidazol-2-yl]-2-methyl-3,6,13,20,26-pentazapentacyclo[18.5.2.0^{5,14).0^{7, 12}.0^{23,27}]heptacosa-1(26),5(14),6,8,10,12,21,23(27),24-nonaen-4-one] | 6.90
C[C@H]1NC(=O)[C@]2(C)C[C@H]2CCCCCn2c(-c3nc4cc(C(=O)N[C@H]5CNCC[C@@H]5F)c(F)cc4n3C3CC3)cc3ccc1nc32 [Example 544, 1-cyclopropyl-2-[(2~ {R},5~{R},7~{R})-2,5-dimethyl-4-oxo-3,13,19-triazatetracyclo [11.5.2.0^{5,7}.0^{16,20}]icosa-1(19),14,16(20), 17-tetraen-14-yl]-6-fluoro-~ {N}-[(3~{S},4~{S})-4-fluoro-3-piperidyl]benzimidazole-5-carboxamide] | 7.40
C[C@H]1NC(=O)[C@]2(C)C[C@H]2CCCC(F)(F)Cn2c(-c3nc4cc(C(=O)N5[C@H]6CC[C@@H]5[C@H](N)C6)c(F)cc4n3C)cc3ccc1nc32 [Example 554, (2~{R},5~{R},7~ {R})-14-[5-[(1~{R},2~ {R},4~{S})-2-amino-7-azabicyclo[2.2.1]heptane-7-carbonyl]-6-fluoro-1-methyl-benzimidazol-2-yl]-11,11-difluoro-2,5-dimethyl-3,13,19-triazatetracyclo[11.5.2.0^ {5,7}.0^{16,20}]icosa-1(19), 14,16(20),17-tetraen-4-one] | 7.47
COc1cc(C(=O)N2[C@H]3CC[C@@H]2[C@H](N)C3)cc2nc(-c3cc4ccc5cc4n3CCCCCC[C@@](C)(OC)C(=O)N[C@@H]5C)n(C)c12 [Example 340, (8~{R},11~{R})-17-[5-[(1~{R},2~{R},4~{S})-2-amino-7-azabicyclo[2.2.1]heptane-7-carbonyl]-7-methoxy-1-methyl-benzimidazol-2-yl]-8-methoxy-8,11-dimethyl-1,10-diazatricyclo[10.5.2.0^{15,18}]nonadeca-12(19),13,15(18),16-tetraen-9-one] | 7.21

Results, then the compound that gave them:

pIC50 | Compound
5.86 | COc1cc(C(=O)N2CCC[C@@H](N)C2)cc2nc(-c3cc4ccc5cc4n3CCCCCCC(C)(C)C(=O)Nc3ccccc3-5)n(C)c12 [Example 54, 18-[5-[(3~{R})-3-aminopiperidine-1-carbonyl]-7-methoxy-1-methyl-benzimidazol-2-yl]-10,10-dimethyl-8,17-diazatetracyclo[15.5.2.0^{2,7).0^{20,24}] tetracosa-1(23),2,4,6,18,20(24),21-heptaen-9-one]
7.64 | COc1cc(C(=O)N2[C@H]3CC[C@@H]2[C@H](N)C3)cc2nc(-c3cc4ccc5nc4n3CCCCCc3ccccc3C(=O)N[C@@H]5C)n(C)c12 [Example 39, (2~{R})-17-[5-[(1~{R},2~{R),4~{S})-2-amino-7-azabicyclo[2.2.1]heptane-7-carbonyl]-7-methoxy-1-methyl-benzimidazol-2-yl]-2-methyl-3,16,22-triazatetracyclo[14.5.2.0^{5,10}.0^{19,23}] tricosa-1(22),5,7,9,17,19(23),20-heptaen-4-one]
6.52 | COc1cc(C(=O)N2CCC[C@@H](N)C2)cc2nc(-c3cc4ccc5cc4n3CCCCCC[C@@H]3CCN(C3=O)[C@@H]5C)n(C)c12 [Example 113, (2~{R},6~{R})-14-[5-[(3~{R})-3-aminopiperidine-1-carbonyl]-7-methoxy-1-methyl-benzimidazol-2-yl]-2-methyl-3,13-diazatetracyclo[11.5.2.1^{3,6}.0^{16,20}] henicosa-1(19),14,16(20),17-tetraen-21-one]
6.76 | COc1cc(C(=O)N2CCC[C@@H](N)C2)cc2nc(-c3cc4ccc5nc4n3C[C@H]3C[C@H]3COCC3(CC3)C(=O)N[C@@H]5C)n(C)c12 [Example 311, (3~{S],5~{R},12~{R})-18-[5-[(3~{R})-3-aminopiperidine-1-carbonyl]-7-methoxy-1-methyl-benzimidazol-2-yl]-12-methyl-spiro[7-oxa-1,11,20-triazatetracyclo[11.5.2.0^{3,5}.0^{16,19}]icosa-13(20),14,16(19),17-tetraene-9,1′-cyclopropane]-10-one]
7.38 | CO[C@@H]1CCN(C(=O)c2cc(Cl)c3c(c2)nc(-c2cc4ccc5nc4n2CC(F)(F)CCC[C@@H]2C[C@H]2C(=O)N[C@@H]5C)n3C2CC2)C[C@@H]1N [Example 806, (2~{R},5~{R},7~{R})-14-[5-[(3~{S},4~{R})-3-amino-4-methoxy-piperidine-1-carbonyl]-7-chloro-1-cyclopropyl-benzimidazol-2-yl]-11,11-difluoro-2-methyl-3,13,19-triazatetracyclo[11.5.2.0^ {5,7}.0^{16,20}] icosa-1(18),14,16,19-tetraen-4-one]
7.89 | COc1cc(C(=O)N2CCC[C@@H](N)C2)cc2nc(-c3cc4ccc5nc4n3CCCCCCCCC(=O)N[C@@H]5C)n(C)c12 [Example 283, (12~{R})-18-[5-[(3~{R})-3-aminopiperidine-1-carbonyl]-7-methoxy-1-methyl-benzimidazol-2-yl]-12-methyl-1,11,20-triazatricyclo[11.5.2.0^{16,19}]icosa-13(20),14,16(19),17-tetraen-10-one]
7.41 | COc1cc(C(=O)N2CC[C@@H](OC)[C@@H](N)C2)cc2nc(-c3cc4ccc5nc4n3CCCCC[C@]3(F)C[C@H]3C(=O)N[C@@H]5C)n(C)c12 [Example 689, (2~{R},5~{S},7~{S})-14-[5-[(3~{S},4~{R})-3-amino-4-methoxy-piperidine-1-carbonyl]-7-methoxy-1-methyl-benzimidazol-2-yl]-7-fluoro-2-methyl-3,13,19-triazatetracyclo[11.5.2.0^ {5,7}.0^{16,20}]icosa-1(19),14,16(20),17-tetraen-4-one]
7.08 | COc1cc(C(=O)N2CC[C@@H](OC)[C@@H](N)C2)cc2nc(-c3cc4ccc5nc4n3CCCCCc3ncccc3C(=O)N[C@@H]5C)n(C)c12 [Example 409, (2~{R})-17-[5-[(3~{S},4~{R})-3-amino-4-methoxy-piperidine-1-carbonyl]-7-methoxy-1-methyl-benzimidazol-2-yl]-2-methyl-3,9,16,22-tetrazatetracyclo[14.5.2.0^{5,10}.0^{19,23}] tricosa-1(22),5(10),6,8,17,19(23),20-heptaen-4-one]
7.19 | COc1cc(C(=O)N2C[C@H](N)[C@@H]3CC[C@H]2C3)cc2nc(-c3cc4ccc5nc4n3CC(F)(F)CCCOC3(CC3)C(=O)N[C@@H]5C)n(C3CC3)c12 [Example 931, (11~{R})-17-[5-[(1~{S},4~{R}, 5~{R})-4-amino-2-azabicyclo [3.2.1]octane-2-carbonyl]-1-cyclopropyl-7-methoxy-benzimidazol-2-yl]-3,3-difluoro-11-methyl-spiro[7-oxa-1,10,19-triazatricyclo[10.5.2.0^ {15,18}]nonadeca-12(19), 13,15(18),16-tetraene-8,1′-cyclopropane]-9-one]
7.28 | COc1cc(C(=O)N2CCC[C@@H](N)C2)cc2nc(-c3cc4ccc5cc4n3CCCCCCC(C)(C)C(=O)N[C@@H]5C)n(C3CC3)c12 [Example 160, (11~{R})-17-[5-[(3~{R})-3-aminopiperidine-1-carbonyl]-1-cyclopropyl-7-methoxy-benzimidazol-2-yl]-8,8,11-trimethyl-1,10-diazatricyclo[10.5.2.0^{15,18}]nonadeca-12(19),13,15(18),16-tetraen-9-one]
